Here are results for one compound from patent EP1612281A2, “Methods for assessing patients with acute myeloid leukemia” (Veridex, LLC, priority 2004, dated 2006).

SMILES strings stand for the structures.

The experiment concerns patients with relapsed or refractory AML. Kind of experiment: Open label, multicenter, non-comparative phase 2 clinical study of tipifarnib with gene expression profiling. In kind it is in vivo, human. On the procedure: The current study was part of an open label, multicenter, non-comparative phase 2 clinical study in which patients with relapsed or refractory AML (Harousseau et al. (2003)) were treated with tipifarnib at a starting oral dose of 600 mg bid for the first 21 consecutive days of each 28-day cycle. Patients were enrolled into 2 cohorts, those with relapsed AML and those with refractory AML. A total of 252 patients (135 relapsed and 117 refractory) were treated. Eighty patients chose to provide bone marrow samples for RNA microarray analysis, for which a separate informed consent was required. […] Complete remission with incomplete platelet recovery was defined similarly, except for a platelet count less than 100,000/µL sufficient to ensure transfusion independence. Partial remission was defined as at least a 50% decrease in bone marrow blasts with partial neutrophil (>500/µL) and platelet count (>50,000/µL) recovery. Response had to be confirmed at least 4 weeks after first documentation.
The current study was an open label, multicenter, non-comparative Phase 2 study investigating the efficacy and safety of farnesyl transferase inhibition with tipifarnib administered as a single agent, at a starting oral dose of 600 mg b.i.d. for the first 21 days of each 28 day cycle in AML. Subjects were enrolled into two cohorts, those with relapsed AML and those with refractory AML. A total of 252 patients (135 relapsed and 117 refractory) were treated.

With `Cn1cncc1[C@@](N)(c1ccc(Cl)cc1)c1ccc2c(c1)c(-c1cccc(Cl)c1)cc(=O)n2C` [tipifarnib], the response rate worked out at 18% (current patient population (10/54), stable disease patients excluded); 24% (entire group of 58 profiled patients (14/58), response includes objective response, hematological response or stable disease); 31% (patients with low expression of AKAP13 (8/26), stable disease patients excluded); 43% (patients with low expression of the AKAP13 gene (13/30), LOOCV, 58 samples); 48% (patients with the 3-gene signature (AHR, AKAP13, MINA53) (12/25), LOOCV).
